Measured values: publication PMC3702004, “Comparison of Intake and Systemic Relative Effect Potencies of Dioxin-like Compounds in Female Mice after a Single Oral Dose” (Environmental Health Perspectives, 2013)

Test system: Cyp1b1 mRNA in liver
Assay: Cyp1b1 gene expression in liver (real-time PCR)
Type: in vivo, female C57BL/6 mice
Conditions: for BMR20TCDD Liver Cyp1b1 mRNA: 3 days after single oral dose; for REP Liver Cyp1b1 mRNA: relative to TCDD; for Effect on hepatic Cyp1b1 mRNA expression: single oral dose, day 3
Description: Animals. Eight-week-old female C57BL/6 mice (Harlan laboratories, Venray, the Netherlands) were randomly assigned to treatment groups (six animals per group) and allowed to acclimate for 1.5 weeks. The animals were housed in groups in standard cages and conditions (23 ± 2°C, 50–60% relative humidity, 12-hr dark/light cycle) with free access to food and water. Mice received a single dose of test compound by oral gavage at a dosing volume of 10 mL/kg body weight (BW). Mice treated with corn oil vehicle (10 mL/kg BW) served as controls. For each congener, five different doses were administered, ranging from 0.5–100 μg/kg BW (TCDD) to 5,000–500,000 µg/kg BW (PCB-153). Detailed information on doses is provided in Supplemental Material, Table S1 (http://dx.doi.org/10.1289/ehp.1206336). On day 3 after dosing, animals were euthanized by CO2/O2 asphyxiation, and blood was immediately collected from the abdominal aorta. The liver, thymus, spleen, and adipose tissue were removed, weighed (liver, thymus, and spleen), snap frozen, and stored at –80°C. All animal treatments were performed with permission of the Animal Ethical Committee (DEC Utrecht) and performed according to the [Law on Animal Experiments (1977)]. Animals were treated humanely and with regard for alleviation of suffering.
RNA isolation and quantitative real-time polymerase chain reaction (PCR). Total RNA was isolated from liver and PBLs using a QIAGEN RNeasy kit (QIAGEN). Purity and concentration of the isolated RNA was determined by measuring the absorbance ratio at 260/280 nm and 230/260 nm with a Nanodrop 2000 spectrophotometer (Thermo Scientific, Asheville, NC, USA). RNA was reverse transcribed to complementary DNA (cDNA) using the iScript cDNA synthesis Kit (Bio-Rad, Veenendaal, the Netherlands). Quantitative real-time PCR analyses were performed using the iQ Real-Time PCR Detection System with SYBR green (Bio-Rad). Amplification reactions were set up with […] containing 12.5 μL iQ SYBR Green Supermix (Bio-rad), 0.5 μL distilled H2O, 1 μL (10 μM) forward primer, 1 μL (10 μM) reverse primer, and 10 μL first strand cDNA (10X diluted). Primer sequences were as follows: Cyp1a1: forward-5´-GGTTAACCATGACCGGGAACT-3´ and reverse-5´-TGCCCAAACCAAAGAGAGTGA-3´ ([Schulz et al. 2012]); Cyp1a2: forward-5´-ACATTCCCAAGGAGCGCTGTATCT-3´ and reverse-5´-GTCGATGGCCGAGTTGTTATTGGT-3´ ([Flaveny et al. 2010]); Cyp1b1: forward-5´-GTGGCTGCTCATCCTCTTTACC-3´ and reverse-5´-CCCACAACCTGGTCCAACTC-3´ ([Berge et al. 2004]); β-actin: forward-5´-ATGCTCCCCGGGCTGTAT-3´ and reverse-5´-CATAGGAGTCCTTCTGACCCATTC-3´ ([Schulz et al. 2012]). All primers were run through the National Center for Biotechnology Information Primer-BLAST database (http://www.ncbi.nlm.nih.gov/tools/primer-blast/) to confirm specificity and validate for optimal annealing temperature (60°C for all primers) and efficiency. The efficiency of all primer pairs was 98–102% (tested at 60°C). The following program was used for denaturation and amplification of cDNA: 3 min at 95°C, followed by 40 cycles of 15 sec at 95°C and 45 sec at 60°C. Gene expression for each sample was expressed as threshold cycle (Ct), normalized to the reference gene β-actin (ΔCt). We calculated fold induction relative to the control group.
Data analysis. We obtained concentration–response curves using a sigmoidal dose–response nonlinear regression curve fit with variable slope (GraphPad Prism 6.01; GraphPad Software Inc., San Diego, CA, USA):
In this Hill equation, y is the dependent variable (EROD activity or fold induction of mRNA levels), x the independent variable (administered or systemic dose), E0 is the estimated background response level, Emax is the maximum response, b is the estimated median effective concentration (EC50), and n is the shaping parameter of the Hill curve.
Using the congener-specific BMR20TCDD concentration, REPs were calculated relatively to TCDD: […]

[1] = dose metric Adm dose (µg/kg BW)
[2] = dose metric Syst adipose (ng/g lipid)
[3] = dose metric Syst liver (ng/g lipid)
[4] = dose metric Syst liver (ng/g liver)
[5] = dose metric Syst plasma (ng/g lipid)

| SMILES | BMR20TCDD Liver Cyp1b1 mRNA (dose metric Adm dose) | BMR20TCDD Liver Cyp1b1 mRNA (dose metric Syst adipose) | BMR20TCDD Liver Cyp1b1 mRNA (dose metric Syst plasma) | REP Liver Cyp1b1 mRNA [1] | REP Liver Cyp1b1 mRNA [2] | REP Liver Cyp1b1 mRNA [3] | REP Liver Cyp1b1 mRNA [4] | REP Liver Cyp1b1 mRNA [5] | Effect on hepatic Cyp1b1 mRNA expression |
| --- | --- | --- | --- | --- | --- | --- | --- | --- | --- |
| Clc1cc2oc3c(Cl)c(Cl)c(Cl)cc3c2cc1Cl [Congener 4-PeCDF, 2,3,4,7,8-pentachlorodibenzofuran] | 150 µg/kg BW | 461 ng/g lipid | 44.6 ng/g lipid | 0.02 | 0.02 | 0.01 | 0.02 | 0.3 | dose-dependently increased |
| Clc1ccc(-c2cc(Cl)c(Cl)c(Cl)c2)cc1Cl [PCB-126, 3,3´,4,4´,5-pentachlorobiphenyl] | – | – | – | – | – | – | – | – | did not induce |
| Clc1ccc(-c2cc(Cl)c(Cl)c(Cl)c2Cl)cc1Cl [PCB-156, 2,3,3´,4,4´,5-hexachlorobiphenyl] | 95,664 µg/kg BW | 745,126 ng/g lipid | 553,459 ng/g lipid | 0.00004 | 0.00001 | 0.0003 | 0.0004 | 0.00002 | dose-dependently increased |
| Clc1cc2c(cc1Cl)Oc1c(cc(Cl)c(Cl)c1Cl)O2 [PeCDD, 1,2,3,7,8-pentachlorodibenzodioxin] | 10.1 µg/kg BW | 19.4 ng/g lipid | 18.5 ng/g lipid | 0.4 | 0.5 | 0.2 | 0.3 | 0.6 | dose-dependently increased |
| Clc1cc2c(cc1Cl)Oc1cc(Cl)c(Cl)cc1O2 [TCDD, 2,3,7,8-tetrachlorodibenzodioxin, reference compound] | 3.55 µg/kg BW | 10.3 ng/g lipid | 11.6 ng/g lipid | 1 | 1 | 1 | 1 | 1 | dose-dependently increased |
